Experimental findings from US10233191B2, “Fused piperidine amides as modulators of ion channels” (Vertex Pharmaceuticals Incorporated, priority 2013, dated 2019) are described below.

Structures are written as SMILES. pIC50: −log10 of the molar value.

Broadly, the pIC50 is −log10 of the IC50, conventionally taken in molar units.

The assay has as its target T1, NaV 1.7 (Homo sapiens, UniProt Q15858).
T1 construct: expressed in transfected cells; host or cells: HEK cells
Nature of the assay: E-VIPR optical membrane potential assay with electrical stimulation. The assay is classed as cell-based. To be noted: active against one or more sodium channels; assay/subtype not specified in Table 4; read-out: IC50 Binned Activity Data. From the text: E-VIPR Optical Membrane Potential Assay Method with Electrical Stimulation
Sodium channels are voltage-dependent proteins that can be activated by inducing membrane voltage changes by applying electric fields. The electrical stimulation instrument and methods of use are described in Ion Channel Assay Methods PCT/US01/21652, herein incorporated by reference and are referred to as E-VIPR. The instrument comprises a microtiter plate handler, an optical system for exciting the coumarin dye while simultaneously recording the coumarin and oxonol emissions, a waveform generator, a current- or voltage-controlled amplifier, and a device for inserting electrodes in well. Under integrated computer control, this instrument passes user-programmed electrical stimulus protocols to cells within the wells of the microtiter plate.
24 hours before the assay on E-VIPR, HEK cells expressing human NaV subtype, like NaV 1.7, are seeded in 384-well poly-lysine coated plates at 15,000-20,000 cells per well. Other subtypes are performed in an analogous mode in a cell line expressing the NaV of interest. HEK cells are grown in media (exact composition is specific to each cell type and NaV subtype) supplemented with 10% FBS (Fetal Bovine Serum, qualified; GibcoBRL #16140-071) and 1% Pen-Strep (Penicillin-Streptomycin; GibcoBRL #15140-122). Cells are grown in vented cap flasks, in 90% humidity and 10% CO2, to 100% confluence. They are usually split by trypsinization 1:10 or 1:20, depending on scheduling needs, and grown for 2-3 days before the next split.
• 100 mg/mL Pluronic F-127 (Sigma #P2443), in dry DMSO • Compound Plates: 384-well round bottom plate, e.g. Corning 384-well Polypropylene Round Bottom #3656 • Cell Plates: 384-well tissue culture treated plate, e.g. Greiner #781091-1B • 10 mM DiSBAC6(3) (Aurora #00-100-010) in dry DMSO • 10 mM CC2-DMPE (Aurora #00-100-008) in dry DMSO • 200 mM ABSC1 in H2O
Bath1 buffer. Glucose 10 mM (1.8 g/L), Magnesium Chloride (Anhydrous), 1 mM (0.095 g/L), Calcium Chloride, 2 mM (0.222 g/L), HEPES 10 mM (2.38 g/L), Potassium Chloride, 4.5 mM (0.335 g/L), Sodium Chloride 160 mM (9.35 g/L).
Hexyl Dye Solution: Bath1 Buffer+0.5% β-cyclodextrin (make this prior to use, Sigma #C4767), 8 μM CC2-DMPE+2.5 μM DiSBAC6(3). To make the solution Add volume of 10% Pluronic F127 stock equal to volumes of CC2-DMPE+DiSBAC6(3). The order of preparation is first mix Pluronic and CC2-DMPE, then add DiSBAC6(3) while vortexing, then add Bath1+β-Cyclodextrin.
1) Pre-spot compounds (in neat DMSO) into compound plates. Vehicle control (neat DMSO), the positive control (20 mM DMSO stock tetracaine, 125 μM final in assay) and test compounds are added to each well at 160× desired final concentration in neat DMSO. Final compound plate volume will be 80 μL (80-fold intermediate dilution from 1 μL DMSO spot; 160-fold final dilution after transfer to cell plate). Final DMSO concentration for all wells in assay is 0.625%.
2) Prepare Hexyl Dye Solution.
3) Prepare cell plates. On the day of the assay, medium is aspirated and cells are washed three times with 100 μL of Bath1 Solution, maintaining 25 μL residual volume in each well.
4) Dispense 25 μL per well of Hexyl Dye Solution into cell plates. Incubate for 20-35 minutes at room temp or ambient conditions.
5) Dispense 80 μL per well of Bath1 into compound plates. Acid Yellow-17 (1 mM) is added and Potassium Chloride can be altered from 4.5 to 20 mM depending on the NaV subtype and assay sensitivity.
6) Wash cell plates three times with 100 μL per well of Bath1, leaving 25 μL of residual volume. Then transfer 25 uL per well from Compound Plates to Cell Plates. Incubate for 20-35 minutes at room temp/ambient condition
7) Read Plate on E-VIPR. Use the current-controlled amplifier to deliver stimulation wave pulses for typically 9 seconds and a scan rate of 400 Hz. A pre-stimulus recording is performed for 0.5 seconds to obtain the un-stimulated intensities baseline. […]

T1 sequence (Q15858 whole entry): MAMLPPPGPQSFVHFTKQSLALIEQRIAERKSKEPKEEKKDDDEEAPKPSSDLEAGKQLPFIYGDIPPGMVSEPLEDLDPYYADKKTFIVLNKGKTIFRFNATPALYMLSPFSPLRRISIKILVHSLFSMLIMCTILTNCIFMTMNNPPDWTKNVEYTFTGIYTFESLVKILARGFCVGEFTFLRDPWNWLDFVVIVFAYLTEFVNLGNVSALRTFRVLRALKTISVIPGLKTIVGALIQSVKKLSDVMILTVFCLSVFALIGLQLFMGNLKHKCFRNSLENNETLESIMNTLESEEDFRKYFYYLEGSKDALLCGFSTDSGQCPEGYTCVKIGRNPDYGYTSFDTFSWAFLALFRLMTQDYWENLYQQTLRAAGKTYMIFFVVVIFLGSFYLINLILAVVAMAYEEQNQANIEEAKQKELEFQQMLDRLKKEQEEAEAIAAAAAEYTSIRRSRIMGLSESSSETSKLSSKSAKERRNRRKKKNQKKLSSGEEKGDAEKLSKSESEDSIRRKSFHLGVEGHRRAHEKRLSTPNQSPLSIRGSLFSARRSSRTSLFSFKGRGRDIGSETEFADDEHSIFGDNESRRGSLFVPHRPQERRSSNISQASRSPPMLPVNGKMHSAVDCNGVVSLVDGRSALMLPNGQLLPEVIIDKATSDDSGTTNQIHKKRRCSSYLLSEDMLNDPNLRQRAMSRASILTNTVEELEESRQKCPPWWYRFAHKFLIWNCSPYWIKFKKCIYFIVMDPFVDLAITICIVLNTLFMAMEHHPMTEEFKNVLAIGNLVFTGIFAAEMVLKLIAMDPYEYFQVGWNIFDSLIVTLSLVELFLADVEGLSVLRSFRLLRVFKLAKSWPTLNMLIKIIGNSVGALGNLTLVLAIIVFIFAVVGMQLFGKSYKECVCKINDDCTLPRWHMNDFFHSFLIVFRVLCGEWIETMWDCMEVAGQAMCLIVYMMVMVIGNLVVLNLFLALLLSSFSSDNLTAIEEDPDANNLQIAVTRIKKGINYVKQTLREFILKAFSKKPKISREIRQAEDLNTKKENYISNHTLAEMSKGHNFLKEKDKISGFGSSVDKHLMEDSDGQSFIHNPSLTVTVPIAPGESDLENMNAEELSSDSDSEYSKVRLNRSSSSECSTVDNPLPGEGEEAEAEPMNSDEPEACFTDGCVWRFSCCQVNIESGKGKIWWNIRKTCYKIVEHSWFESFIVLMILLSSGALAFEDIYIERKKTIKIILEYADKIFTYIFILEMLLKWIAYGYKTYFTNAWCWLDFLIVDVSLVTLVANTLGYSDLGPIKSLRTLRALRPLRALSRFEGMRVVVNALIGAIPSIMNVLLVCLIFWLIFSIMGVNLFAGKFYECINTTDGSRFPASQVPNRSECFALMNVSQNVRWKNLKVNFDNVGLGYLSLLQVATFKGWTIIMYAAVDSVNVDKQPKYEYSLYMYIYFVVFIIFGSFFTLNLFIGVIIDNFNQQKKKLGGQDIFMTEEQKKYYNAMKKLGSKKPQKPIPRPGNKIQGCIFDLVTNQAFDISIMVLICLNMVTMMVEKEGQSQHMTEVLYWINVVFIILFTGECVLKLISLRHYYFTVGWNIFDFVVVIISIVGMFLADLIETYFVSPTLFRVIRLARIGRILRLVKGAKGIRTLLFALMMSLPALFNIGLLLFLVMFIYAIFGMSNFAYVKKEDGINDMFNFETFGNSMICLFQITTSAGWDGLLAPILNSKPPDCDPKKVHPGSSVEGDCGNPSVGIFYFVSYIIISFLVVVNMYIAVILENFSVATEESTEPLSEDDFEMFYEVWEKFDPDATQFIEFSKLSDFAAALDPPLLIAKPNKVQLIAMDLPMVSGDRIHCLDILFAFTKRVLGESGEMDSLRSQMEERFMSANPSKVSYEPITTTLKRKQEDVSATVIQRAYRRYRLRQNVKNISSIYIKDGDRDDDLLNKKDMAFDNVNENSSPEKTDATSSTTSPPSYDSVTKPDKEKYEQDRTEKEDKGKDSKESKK

Regarding `O=C(c1ccc(OCC(F)(F)C(F)F)c(Cl)c1)N1CC[C@]2(c3ccccn3)OCOC2C1` (some centres unmarked) [Compound 166], the negative-log IC50 (pIC50) is no less than 5.70.

On to `COc1nc(C(=O)N2CC[C@]3(c4cccc(F)c4)OCOC3C2)ccc1OCC1CC2C(C1)C2(F)F` (some centres unmarked) [Compound 237], for which the pIC50 is no less than 5.70.

As to `CC(C)(O)COc1ccc(C(=O)N2CC[C@@]3(c4nccs4)OCOC3C2)cc1Cl` (some centres unmarked) [Compound 17], the negative-log IC50 (pIC50) is 5.30 to 5.70.

For the compound `COc1nc(C(=O)N2CC[C@]3(c4cccc(F)c4)OCOC3C2)ccc1OC1CC=CC1` (some centres unmarked) [Compound 231], the negative-log IC50 (pIC50) is no less than 5.70.

With `Cc1cc(C(=O)N2CC[C@]3(c4cscn4)OCOC3C2)ccc1OCCOC(F)(F)F` (some centres unmarked) [Compound 142], the pIC50 was no less than 5.70.

As for `Cc1nc(C(=O)N2CC[C@]3(c4ccccn4)OCOC3C2)ccc1OCCOC(F)(F)F` (some centres unmarked) [Compound 160], the negative logarithm of the IC50 (pIC50) is no less than 5.70.

On to `COc1nc(C(=O)N2CC[C@]3(c4cccc(F)c4)OCOC3C2)ccc1OCC1C2CC(F)(F)CC12` (some centres unmarked) [Compound 196], for which the negative logarithm of the IC50 (pIC50) is no less than 5.70.

Turning to `[2H]C1([2H])OC2CN(C(=O)c3ccc(OCCOC(F)(F)F)c(OC)n3)CC[C@]2(c2ccccc2)O1` (some centres unmarked) [Compound 159], the negative logarithm of the IC50 (pIC50) is no less than 5.70.

For the compound `COc1cc(C(=O)N2CC[C@]3(c4cc(C(F)(F)F)ccn4)OCOC3C2)ccc1OCC1(C(F)(F)F)CC1` (some centres unmarked) [Compound 198], the negative logarithm of the IC50 (pIC50) was no less than 5.70.

Consider `O=C(c1ccc(OCCC(F)(F)F)c(C(F)(F)F)c1)N1CC[C@@]2(c3cccc(F)c3)OCOC2C1` (some centres unmarked) [Compound 218], for which the negative-log IC50 (pIC50) was no less than 5.70.

Turning to `COc1cc(C(=O)N2CC[C@]3(c4cccc(F)c4F)OCOC3C2)ccc1OCCC(F)(F)F` (some centres unmarked) [Compound 282], the pIC50 is no less than 5.70.

On to `COc1cc(C(=O)N2CC[C@]3(c4cc(C(F)(F)F)ccn4)OCOC3C2)ccc1OCCC1CC1(F)F` (some centres unmarked) [Compound 222], for which the negative logarithm of the IC50 (pIC50) was no less than 5.70.

In the case of `COc1nc(C(=O)N2CC[C@]3(c4cccc(F)c4F)OCOC3C2)ccc1OCC(F)(F)C(F)F` (some centres unmarked) [Compound 262], the pIC50 is no less than 5.70.

For `O=C(c1ccc(S(=O)(=O)C(F)F)cc1)N1CC[C@]2(c3cccc(F)c3)OCOC2C1` (some centres unmarked) [Compound 261], the pIC50 was less than 5.30.

`Cc1cc(C(=O)N2CC[C@]3(c4ncccn4)OCOC3C2)ccc1OCC(C)(C)F` (some centres unmarked) [Compound 27]: the negative logarithm of the IC50 (pIC50) is no less than 5.70.

In the case of `CC(F)(F)COc1ccc(C(=O)N2CC[C@]3(c4ccccn4)OCOC3C2)cc1C(F)(F)F` (some centres unmarked) [Compound 313], the negative-log IC50 (pIC50) is 5.30 to 5.70.

As to `O=C(c1ccc(OCCOC(F)(F)F)c(Cl)c1)N1CC[C@]2(c3nccs3)OCOC2C1` (some centres unmarked) [Compound 140], the pIC50 is no less than 5.70.

For `O=C(c1ccc(O)c(Cl)c1)N1CC[C@]2(c3ccccn3)OCOC2C1` (some centres unmarked) [Compound 9], the pIC50 was less than 5.30.

`COc1nc(C(=O)N2CC[C@]3(c4cccc(C(F)(F)F)n4)OCOC3C2)ccc1OCCOC(F)(F)F` (some centres unmarked) [Compound 272]: the negative logarithm of the IC50 (pIC50) was no less than 5.70.

In the case of `COc1cc(C(=O)N2CC[C@]3(c4ccccn4)OCOC3C2)cc(F)c1OCCC(F)(F)F` (some centres unmarked) [Compound 40], the negative-log IC50 (pIC50) was no less than 5.70.

Take `COc1nc(C(=O)N2CC[C@]3(c4cccc(C(F)(F)F)n4)OCOC3C2)ccc1OCC1CC(F)(F)C1` (some centres unmarked) [Compound 267]: the negative logarithm of the IC50 (pIC50) is no less than 5.70.

On to `COc1cc(C(=O)N2CC[C@]3(c4ncccc4Cl)OCOC3C2)ccc1OCCOC(F)(F)F` (some centres unmarked) [Compound 155], for which the pIC50 is no less than 5.70.

For `O=C(c1ccc(S(=O)(=O)NC2CC2)cc1)N1CCC2(c3ccccc3)CC2C1` (centres unmarked) [Compound 26], the pIC50 was 5.30 to 5.70.

As for `COc1nc(C(=O)N2CC[C@@]3(c4ccccn4)COC3C2)ccc1OCC(F)(F)C(F)F` (some centres unmarked) [Compound 209], the negative-log IC50 (pIC50) was no less than 5.70.

Take `O=C(c1cnc(OCCOC(F)(F)F)c(Cl)c1)N1CCC2(c3ccc(F)cc3)CC2C1` (centres unmarked) [Compound 296]: the pIC50 is 5.30 to 5.70.

As for `COc1cc(C(=O)N2CC[C@]3(c4ccccc4)OCOC3C2)ccc1C(C)(C)CO` (some centres unmarked) [Compound 91], the pIC50 was no less than 5.70.

For `COc1nc(C(=O)N2CC[C@]3(c4ccccn4)OCOC3C2)ccc1OCC1(C(F)(F)F)CC1` (some centres unmarked) [Compound 130], the pIC50 was no less than 5.70.

With `Cc1cc(C(=O)N2CC[C@@]3(c4nccs4)OCOC3C2)ccc1OCC(C)(C)O` (some centres unmarked) [Compound 30], the pIC50 was no less than 5.70.

Consider `[2H]C1([2H])OC2CN(C(=O)c3ccc(OCCOC(F)(F)F)c(C)n3)CC[C@]2(c2cc(F)cc(F)c2)O1` (some centres unmarked) [Compound 308], for which the pIC50 was no less than 5.70.

Take `COc1cc(C(=O)N2CC[C@]3(c4ccccc4)OCCOC3C2)ccc1OCCOC(F)(F)F` (some centres unmarked) [Compound 132]: the negative-log IC50 (pIC50) was no less than 5.70.

As for `COc1cc(C(=O)N2CC[C@]3(c4nccs4)OCOC3C2)ccc1OCC(C)(C)F` (some centres unmarked) [Compound 24], the negative logarithm of the IC50 (pIC50) is 5.30 to 5.70.

On to `COc1ccnc(C23CCN(C(=O)c4ccc(OCCOC(F)(F)F)c(OC)c4)CC2OCO3)c1` (centres unmarked) [Compound 112], for which the pIC50 was no less than 5.70.

For `COc1nc(C(=O)N2CC[C@]3(c4cccc(F)c4F)OCOC3C2)ccc1OCCOC(F)(F)F` (some centres unmarked) [Compound 162], the negative-log IC50 (pIC50) is no less than 5.70.

On to `COc1cc(C(=O)N2CCC3(c4ccccc4)CC3C2)ccc1OCCOC(F)(F)F` (centres unmarked) [Compound 195], for which the negative logarithm of the IC50 (pIC50) was no less than 5.70.

Take `COc1cc(C(=O)N2CC[C@@]3(c4cccc(F)c4)OCOC3C2)ccc1OCCOC(F)(F)F` (some centres unmarked) [Compound 214]: the negative logarithm of the IC50 (pIC50) is no less than 5.70.

For the compound `COc1cc(C(=O)N2CC[C@@]3(c4ccccc4)OCOC3C2)ccc1OCC(C)(C)F` (some centres unmarked) [Compound 36], the negative logarithm of the IC50 (pIC50) was no less than 5.70.

Regarding `COc1ccnc([C@]23CCN(C(=O)c4ccc(OCC(F)(F)C(F)F)c(OC)c4)CC2OCO3)c1` (some centres unmarked) [Compound 3], the pIC50 is no less than 5.70.

For `Cc1cc(C(=O)N2CC[C@@]3(c4nccs4)OCOC3C2)ccc1OCCOC(F)(F)F` (some centres unmarked) [Compound 168], the pIC50 is no less than 5.70.

For the compound `COc1cc(C(=O)N2CC[C@]3(c4cccc(F)c4)OCOC3C2)ccc1N(C)CC1CC(F)(F)C1` (some centres unmarked) [Compound 199], the pIC50 is no less than 5.70.

On to `CC(C)(O)c1ccc(C(=O)N2CCC3(c4ccccc4)CC3C2)cc1F` (centres unmarked) [Compound 57], for which the pIC50 is less than 5.30.

For `Cc1cc(C(=O)N2CC[C@]3(c4ncccc4Cl)OCOC3C2)ccc1OCC(C)(C)F` (some centres unmarked) [Compound 152], the pIC50 is no less than 5.70.

For `CC(Oc1ccc(C(=O)N2CC[C@]3(c4ccccn4)OCOC3C2)cc1Cl)C(F)(F)F` (some centres unmarked) [Compound 156], the negative logarithm of the IC50 (pIC50) was no less than 5.70.

`COc1cc(C(=O)N2CC[C@]3(c4ccccn4)OC(C)(C)OC3C2)ccc1OCCOC(F)(F)F` (some centres unmarked) [Compound 310]: the negative-log IC50 (pIC50) is no less than 5.70.

Turning to `COc1nc(C(=O)N2CC[C@]3(c4cccc(F)c4)OCOC3C2)ccc1OC(C)C(F)(F)F` (some centres unmarked) [Compound 264], the pIC50 is no less than 5.70.

As to `COc1nc(C(=O)N2CC[C@]3(c4cc(C(F)(F)F)ccn4)OCOC3C2)ccc1OCCOC(F)(F)F` (some centres unmarked) [Compound 153], the negative-log IC50 (pIC50) is no less than 5.70.

`O=C(c1ccc(OCC2(C(F)(F)F)CC2)c(Cl)c1)N1CC[C@]2(c3ccccn3)COC2C1` (some centres unmarked) [Compound 207]: the pIC50 is no less than 5.70.

Regarding `COc1cc(C(=O)N2CC[C@]3(c4cc(F)cc(F)c4)OCOC3C2)ccc1OCCOC(F)(F)F` (some centres unmarked) [Compound 4], the negative logarithm of the IC50 (pIC50) was no less than 5.70.
